Measurements taken from US9650339B2, “Inhibitors of histone demethylases” (Gilead Sciences, Inc., priority 2013, dated 2017).
pIC50: −log10 of the molar value.

Key:
Type in all cases: biochemical
[1] = target: T1, KDM5C (JARID1C) (Homo sapiens, UniProt P41229); experiment: Histone lysine demethylase AlphaLISA assay, KDM5C; conditions: read-out: KDM5C HDME Inhibition IC50
T1 construct: 2-1560; purchased BPS; host or cells: Bac (baculovirus system)
Outline: (§1)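 AlphaLISA demethylation readout: enzyme preincubated 10 min, then 10 min with compounds in 3% DMSO buffer, before biotinylated methyl-lysine histone peptide substrate with 25 μM L-Asc and 10 μM α-KG, room temperature. Acceptor beads then streptavidin donor beads added, dark incubation, plates read.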

[2] = target: T2, KDM5B (PLU-1) (Homo sapiens, UniProt Q9UGL1); experiment: Histone lysine demethylase AlphaLISA assay, KDM5B; conditions: read-out: KDM5B HDME Inhibition IC50
T2 sequence (Q9UGL1 1-809): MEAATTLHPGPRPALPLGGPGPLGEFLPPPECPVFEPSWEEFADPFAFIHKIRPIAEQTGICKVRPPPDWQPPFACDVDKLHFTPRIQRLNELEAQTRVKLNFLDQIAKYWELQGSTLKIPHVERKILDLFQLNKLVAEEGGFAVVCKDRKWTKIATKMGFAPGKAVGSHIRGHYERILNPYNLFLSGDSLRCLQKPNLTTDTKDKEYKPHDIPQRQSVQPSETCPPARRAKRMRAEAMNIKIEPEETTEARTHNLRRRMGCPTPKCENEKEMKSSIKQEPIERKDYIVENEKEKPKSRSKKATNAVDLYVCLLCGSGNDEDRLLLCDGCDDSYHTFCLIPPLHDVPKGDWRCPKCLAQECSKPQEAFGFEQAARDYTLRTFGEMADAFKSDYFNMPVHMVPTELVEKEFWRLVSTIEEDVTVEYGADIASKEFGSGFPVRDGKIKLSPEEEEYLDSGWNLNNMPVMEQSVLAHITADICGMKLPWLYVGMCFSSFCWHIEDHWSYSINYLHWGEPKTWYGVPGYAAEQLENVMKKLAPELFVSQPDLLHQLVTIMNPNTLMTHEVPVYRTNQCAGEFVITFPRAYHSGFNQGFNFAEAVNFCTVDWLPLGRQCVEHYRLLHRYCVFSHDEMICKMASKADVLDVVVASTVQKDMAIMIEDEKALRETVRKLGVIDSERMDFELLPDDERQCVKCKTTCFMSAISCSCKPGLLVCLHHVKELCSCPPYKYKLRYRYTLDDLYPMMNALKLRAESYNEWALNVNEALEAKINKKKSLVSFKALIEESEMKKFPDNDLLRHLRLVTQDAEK
Outline: as §1

[3] = target: T3, KDM7 (PHF8) (Homo sapiens, UniProt Q9UPP1); experiment: Histone lysine demethylase AlphaLISA assay, KDM7; conditions: read-out: PHF8 HDME Inhibition IC50
T3 construct: KDM7 (PHF8); BRIC; 1-1322; Bac
Outline: as §1

[4] = target: T4, KDM3A (JMJD1A) (Homo sapiens, UniProt Q9Y4C1); experiment: Histone lysine demethylase AlphaLISA assay, KDM3A; conditions: read-out: KDM3 A HDME Inhibition IC50
T4 construct: 2-end; purchased BPS Bioscience, US; host or cells: Bac (baculovirus system)
T4 sequence (Q9Y4C1 2-1321 limits assumed): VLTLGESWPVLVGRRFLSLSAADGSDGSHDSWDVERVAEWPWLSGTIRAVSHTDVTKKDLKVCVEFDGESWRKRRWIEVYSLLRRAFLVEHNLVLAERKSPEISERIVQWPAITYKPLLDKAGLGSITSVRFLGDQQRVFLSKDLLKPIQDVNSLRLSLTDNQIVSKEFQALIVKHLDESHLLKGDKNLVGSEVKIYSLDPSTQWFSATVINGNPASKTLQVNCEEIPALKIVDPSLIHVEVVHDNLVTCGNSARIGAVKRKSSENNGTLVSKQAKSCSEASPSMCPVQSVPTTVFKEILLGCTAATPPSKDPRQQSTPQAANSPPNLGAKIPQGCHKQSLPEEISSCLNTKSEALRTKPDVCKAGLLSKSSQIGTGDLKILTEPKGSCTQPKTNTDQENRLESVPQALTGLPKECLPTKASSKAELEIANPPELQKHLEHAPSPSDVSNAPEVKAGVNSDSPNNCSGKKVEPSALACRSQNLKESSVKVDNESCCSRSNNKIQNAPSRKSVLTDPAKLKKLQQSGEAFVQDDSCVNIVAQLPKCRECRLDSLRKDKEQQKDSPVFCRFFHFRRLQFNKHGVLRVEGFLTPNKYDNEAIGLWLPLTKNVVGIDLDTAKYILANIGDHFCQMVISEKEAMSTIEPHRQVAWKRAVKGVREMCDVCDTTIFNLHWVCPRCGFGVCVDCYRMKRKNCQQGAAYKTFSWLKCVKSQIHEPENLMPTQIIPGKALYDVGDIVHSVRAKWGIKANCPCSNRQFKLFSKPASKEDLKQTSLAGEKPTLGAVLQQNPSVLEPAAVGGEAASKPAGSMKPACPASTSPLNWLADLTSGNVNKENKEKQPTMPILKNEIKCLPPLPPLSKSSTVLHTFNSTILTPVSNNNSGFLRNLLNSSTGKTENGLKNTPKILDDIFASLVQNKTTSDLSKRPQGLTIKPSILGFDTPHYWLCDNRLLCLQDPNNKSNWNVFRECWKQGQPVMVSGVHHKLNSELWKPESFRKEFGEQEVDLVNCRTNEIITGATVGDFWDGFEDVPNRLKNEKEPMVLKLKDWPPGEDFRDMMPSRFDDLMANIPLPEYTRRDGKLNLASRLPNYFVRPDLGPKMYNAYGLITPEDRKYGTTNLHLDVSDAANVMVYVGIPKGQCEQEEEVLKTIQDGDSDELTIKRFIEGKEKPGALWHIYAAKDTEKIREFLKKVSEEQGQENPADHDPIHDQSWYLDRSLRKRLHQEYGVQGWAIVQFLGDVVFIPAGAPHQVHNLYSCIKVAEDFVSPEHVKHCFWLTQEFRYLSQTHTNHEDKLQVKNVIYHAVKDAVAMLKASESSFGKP
Outline: as §1

T3 sequence (Q9UPP1 37-440 limits assumed): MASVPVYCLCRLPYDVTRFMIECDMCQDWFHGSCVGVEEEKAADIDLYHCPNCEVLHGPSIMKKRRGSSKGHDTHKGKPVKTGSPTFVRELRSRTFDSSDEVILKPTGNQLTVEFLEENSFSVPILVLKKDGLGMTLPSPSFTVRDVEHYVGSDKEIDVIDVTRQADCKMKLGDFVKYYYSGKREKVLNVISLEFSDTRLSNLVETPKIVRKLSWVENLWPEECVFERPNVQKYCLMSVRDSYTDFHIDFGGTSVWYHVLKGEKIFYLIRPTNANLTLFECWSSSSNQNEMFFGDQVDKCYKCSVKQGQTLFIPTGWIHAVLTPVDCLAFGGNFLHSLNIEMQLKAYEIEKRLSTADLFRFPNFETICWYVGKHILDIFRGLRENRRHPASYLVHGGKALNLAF
T1 sequence (P41229 2-1560): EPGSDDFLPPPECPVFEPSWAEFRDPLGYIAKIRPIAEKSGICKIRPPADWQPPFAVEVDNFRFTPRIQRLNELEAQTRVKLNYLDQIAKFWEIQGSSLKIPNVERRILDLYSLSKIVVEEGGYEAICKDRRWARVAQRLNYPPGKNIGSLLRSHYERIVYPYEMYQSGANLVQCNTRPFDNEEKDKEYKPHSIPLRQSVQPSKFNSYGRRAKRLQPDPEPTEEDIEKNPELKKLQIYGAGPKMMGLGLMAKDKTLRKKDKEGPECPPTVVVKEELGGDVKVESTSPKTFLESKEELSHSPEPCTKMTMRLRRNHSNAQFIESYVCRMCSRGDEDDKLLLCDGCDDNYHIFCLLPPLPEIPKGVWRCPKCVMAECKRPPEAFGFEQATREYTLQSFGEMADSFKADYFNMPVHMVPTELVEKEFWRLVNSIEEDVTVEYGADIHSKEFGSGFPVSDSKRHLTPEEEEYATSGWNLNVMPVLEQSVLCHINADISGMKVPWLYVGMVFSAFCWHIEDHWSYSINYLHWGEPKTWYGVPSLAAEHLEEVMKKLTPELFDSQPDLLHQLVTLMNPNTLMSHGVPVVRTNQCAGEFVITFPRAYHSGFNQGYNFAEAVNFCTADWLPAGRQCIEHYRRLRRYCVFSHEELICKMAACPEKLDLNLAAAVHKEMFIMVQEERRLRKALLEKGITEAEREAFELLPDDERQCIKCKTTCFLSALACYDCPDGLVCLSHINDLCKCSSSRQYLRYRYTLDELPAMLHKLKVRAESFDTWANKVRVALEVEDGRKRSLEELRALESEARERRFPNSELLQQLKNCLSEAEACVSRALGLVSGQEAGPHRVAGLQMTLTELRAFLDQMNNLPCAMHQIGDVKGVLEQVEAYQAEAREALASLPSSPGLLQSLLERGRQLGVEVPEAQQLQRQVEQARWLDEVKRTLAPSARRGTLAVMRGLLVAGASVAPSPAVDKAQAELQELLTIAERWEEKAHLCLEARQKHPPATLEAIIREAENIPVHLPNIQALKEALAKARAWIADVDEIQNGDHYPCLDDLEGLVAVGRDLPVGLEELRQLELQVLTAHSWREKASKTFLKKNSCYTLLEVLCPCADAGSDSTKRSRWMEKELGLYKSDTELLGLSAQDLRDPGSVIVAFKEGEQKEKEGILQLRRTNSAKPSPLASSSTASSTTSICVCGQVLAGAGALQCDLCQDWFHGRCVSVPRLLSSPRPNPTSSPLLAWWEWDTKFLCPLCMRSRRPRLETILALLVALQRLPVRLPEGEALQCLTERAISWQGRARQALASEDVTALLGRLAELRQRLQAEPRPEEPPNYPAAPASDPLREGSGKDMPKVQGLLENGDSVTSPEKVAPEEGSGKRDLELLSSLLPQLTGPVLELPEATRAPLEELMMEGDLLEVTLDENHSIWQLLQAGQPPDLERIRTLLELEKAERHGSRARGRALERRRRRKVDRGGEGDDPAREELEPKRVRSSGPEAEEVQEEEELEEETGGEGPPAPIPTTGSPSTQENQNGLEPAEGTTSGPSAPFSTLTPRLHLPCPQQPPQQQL

pIC50 [1]	pIC50 [2]	pIC50 [3]	pIC50 [4]	SMILES
> 6.60	5.60 to 6.60	< 5.60	< 5.60	CN(C)CCCCNCc1cc(C=O)ccn1 [Compound 108, 2-({[4-(dimethylamino)-butyl]amino}methyl)-pyridine-4-carbaldehyde]
> 6.60	> 6.60	< 5.60	< 5.60	CN(C)CCCCCNCc1cc(C=O)ccn1 [Compound 114, 2-({[5-(dimethylamino)-pentyl]amino}methyl)-pyridine-4-carbaldehyde]

Further lines, the molecule ahead of its results:

SMILES	pIC50 [1]	pIC50 [2]	pIC50 [3]	pIC50 [4]
CN(C)CCNCc1cc(C=O)ccn1 [Compound 110, 2-({[2-(dimethylamino)-ethyl]amino}methyl)-pyridine-4-carbaldehyde]	> 6.60	5.60 to 6.60	< 5.60	< 5.60
O=Cc1ccnc(CNCCCN2CCCC2)c1 [Compound 111, 2-({[3-(pyrrolidin-1-yl)propyl]amino}-methyl)pyridine-4-carbaldehyde]	> 6.60	> 6.60	< 5.60	< 5.60
CCN(CC)CCCCN(Cc1cc(C=O)ccn1)C(=O)C(F)(F)F [Compound 115, N-[4-(diethylamino)butyl]-2,2,2-trifluoro-N-[(4-formylpyridin-2-yl)methyl]acetamide]	> 6.60	< 5.60	5.60 to 6.60	< 5.60
